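48-hour exposure; five concentrations; linearly interpolated endpoints. Here, GI50 denotes the concentration required for 50% inhibition of growth. Definition used: TGI = concentration required for complete inhibition of growth.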
How the values were obtained:
Experiment in all cases: growth of human tumour cells (NCI), 48 h
786-0 renal = test system: 786-0 renal
A498 renal = test system: A498 renal
A549 NSCLC = test system: A549 NSCLC
ACHN renal = test system: ACHN renal
BT-549 breast = test system: BT-549 breast
CAKI-1 renal = test system: CAKI-1 renal
CCRF-CEM leukemia = test system: CCRF-CEM leukemia
COLO 205 colon = test system: COLO 205 colon
DU-145 prostate = test system: DU-145 prostate
HCC-2998 colon = test system: HCC-2998 colon
HCT-116 colon = test system: HCT-116 colon
HCT-15 colon = test system: HCT-15 colon
HL-60(TB) leukemia = test system: HL-60(TB) leukemia
HOP-62 NSCLC = test system: HOP-62 NSCLC
HOP-92 NSCLC = test system: HOP-92 NSCLC
HS 578T breast = test system: HS 578T breast
HT29 colon = test system: HT29 colon
IGROV1 ovarian = test system: IGROV1 ovarian
K-562 leukemia = test system: K-562 leukemia
KM12 colon = test system: KM12 colon
LOX IMVI melanoma = test system: LOX IMVI melanoma
M14 melanoma = test system: M14 melanoma
MALME-3M melanoma = test system: MALME-3M melanoma
MCF7 breast = test system: MCF7 breast
MDA-MB-231 breast = test system: MDA-MB-231 breast
MDA-MB-435 = test system: MDA-MB-435
MOLT-4 leukemia = test system: MOLT-4 leukemia
NCI-H226 lung = test system: NCI-H226 lung
NCI-H23 lung = test system: NCI-H23 lung
NCI-H460 lung = test system: NCI-H460 lung
NCI-H522 lung = test system: NCI-H522 lung
NCI/ADR-RES ovarian = test system: NCI/ADR-RES ovarian
OVCAR-3 ovarian = test system: OVCAR-3 ovarian
OVCAR-4 ovarian = test system: OVCAR-4 ovarian
OVCAR-5 ovarian = test system: OVCAR-5 ovarian
OVCAR-8 ovarian = test system: OVCAR-8 ovarian
PC-3 prostate = test system: PC-3 prostate
RPMI-8226 leukemia = test system: RPMI-8226 leukemia
RXF 393 renal = test system: RXF 393 renal
SF-268 CNS = test system: SF-268 CNS
SF-295 CNS = test system: SF-295 CNS
SF-539 CNS = test system: SF-539 CNS
SK-MEL-2 melanoma = test system: SK-MEL-2 melanoma
SK-MEL-28 melanoma = test system: SK-MEL-28 melanoma
SK-MEL-5 melanoma = test system: SK-MEL-5 melanoma
SK-OV-3 ovarian = test system: SK-OV-3 ovarian
SN12C renal = test system: SN12C renal
SNB-19 CNS = test system: SNB-19 CNS
SNB-75 CNS = test system: SNB-75 CNS
SR leukemia = test system: SR leukemia
SW-620 colon = test system: SW-620 colon
T-47D breast = test system: T-47D breast
TK-10 renal = test system: TK-10 renal
U251 CNS = test system: U251 CNS
UACC-257 melanoma = test system: UACC-257 melanoma
UACC-62 melanoma = test system: UACC-62 melanoma
UO-31 renal = test system: UO-31 renal

With `Cc1ccc2c(NCCCN(C)C)c3c(C)nn(C)c3nc2c1` the GI50 (786-0 renal) was 4.99 µM, the TGI (786-0 renal) was 26.5 µM and the GI50 (A498 renal) was 1.8 µM. For the same compound, the TGI (A498 renal) was 7.86 µM, the GI50 (A549 NSCLC) was 3.45 µM and the TGI (A549 NSCLC) was 25.1 µM. For the same compound, the GI50 (ACHN renal) was 2.25 µM, the TGI (ACHN renal) was 16.9 µM and the GI50 (BT-549 breast) was 13.7 µM. The TGI (BT-549 breast) was 31 µM, the GI50 (CAKI-1 renal) was 3.04 µM and the TGI (CAKI-1 renal) was 38.1 µM. The GI50 (CCRF-CEM leukemia) was 5.09 µM, the TGI (CCRF-CEM leukemia) was 88.8 µM and the GI50 (COLO 205 colon) was 3.03 µM. For the same compound, the TGI (COLO 205 colon) was 11.4 µM, the GI50 (DU-145 prostate) was 3.88 µM and the TGI (DU-145 prostate) was 37.7 µM. For the same compound, the GI50 (HCC-2998 colon) was 5.83 µM, the TGI (HCC-2998 colon) was 22.4 µM and the GI50 (HCT-116 colon) was 3.04 µM. For the same compound, the TGI (HCT-116 colon) was 25.1 µM, the GI50 (HCT-15 colon) was 2.59 µM and the TGI (HCT-15 colon) was 18.3 µM. For the same compound, the GI50 (HL-60(TB) leukemia) was 5.08 µM, the TGI (HL-60(TB) leukemia) was 22.9 µM and the GI50 (HOP-62 NSCLC) was 6.46 µM. It also gave a TGI (HOP-62 NSCLC) of 60.2 µM, a GI50 (HOP-92 NSCLC) of 1.6 µM and a TGI (HOP-92 NSCLC) of 5.99 µM. The GI50 (HS 578T breast) was 4.24 µM, the TGI (HS 578T breast) was 33.5 µM and the GI50 (HT29 colon) was 2.62 µM. For the same compound, the TGI (HT29 colon) was 8.88 µM, the GI50 (IGROV1 ovarian) was 4.17 µM and the TGI (IGROV1 ovarian) was 29.6 µM. For the same compound, the GI50 (K-562 leukemia) was 3.14 µM, the TGI (K-562 leukemia) was greater than 100 µM and the GI50 (KM12 colon) was 4.55 µM. For the same compound, the TGI (KM12 colon) was 31.8 µM, the GI50 (LOX IMVI melanoma) was 2.22 µM and the TGI (LOX IMVI melanoma) was 5.64 µM. It also gave a GI50 (M14 melanoma) of 4.34 µM, a TGI (M14 melanoma) of 17.6 µM and a GI50 (MALME-3M melanoma) of 4.97 µM. It also gave a TGI (MALME-3M melanoma) of 22 µM, a GI50 (MCF7 breast) of 2.53 µM and a TGI (MCF7 breast) of 7.04 µM. It also gave a GI50 (MDA-MB-231 breast) of 3.86 µM, a TGI (MDA-MB-231 breast) of 19.4 µM and a GI50 (MDA-MB-435) of 3.28 µM. It also gave a TGI (MDA-MB-435) of 14 µM, a GI50 (MOLT-4 leukemia) of 5.11 µM and a TGI (MOLT-4 leukemia) of 33.1 µM. For the same compound, the GI50 (NCI-H226 lung) was 3.34 µM, the TGI (NCI-H226 lung) was 27 µM and the GI50 (NCI-H23 lung) was 5.29 µM. For the same compound, the TGI (NCI-H23 lung) was 25.3 µM, the GI50 (NCI-H460 lung) was 2.96 µM and the TGI (NCI-H460 lung) was 10.2 µM. The GI50 (NCI-H522 lung) was 2.76 µM, the TGI (NCI-H522 lung) was 12.7 µM and the GI50 (NCI/ADR-RES ovarian) was 3.34 µM. For the same compound, the TGI (NCI/ADR-RES ovarian) was 66.4 µM, the GI50 (OVCAR-3 ovarian) was 4.13 µM and the TGI (OVCAR-3 ovarian) was 24.8 µM. For the same compound, the GI50 (OVCAR-4 ovarian) was 3.06 µM, the TGI (OVCAR-4 ovarian) was 16.1 µM and the GI50 (OVCAR-5 ovarian) was 3.69 µM. The TGI (OVCAR-5 ovarian) was 22.4 µM, the GI50 (OVCAR-8 ovarian) was 3.73 µM and the TGI (OVCAR-8 ovarian) was 21.7 µM. The GI50 (PC-3 prostate) was 3.59 µM, the TGI (PC-3 prostate) was 16.3 µM and the GI50 (RPMI-8226 leukemia) was 3.3 µM. For the same compound, the TGI (RPMI-8226 leukemia) was 14.4 µM, the GI50 (RXF 393 renal) was 2.71 µM and the TGI (RXF 393 renal) was 12.1 µM. It also gave a GI50 (SF-268 CNS) of 4.18 µM, a TGI (SF-268 CNS) of 23.9 µM and a GI50 (SF-295 CNS) of 3.83 µM. It also gave a TGI (SF-295 CNS) of 28.4 µM, a GI50 (SF-539 CNS) of 4.7 µM and a TGI (SF-539 CNS) of 19.6 µM. It also gave a GI50 (SK-MEL-2 melanoma) of 3.64 µM, a TGI (SK-MEL-2 melanoma) of 11.1 µM and a GI50 (SK-MEL-28 melanoma) of 4.44 µM. For the same compound, the TGI (SK-MEL-28 melanoma) was 17.3 µM, the GI50 (SK-MEL-5 melanoma) was 3.66 µM and the TGI (SK-MEL-5 melanoma) was 14.3 µM. The GI50 (SK-OV-3 ovarian) was 7.26 µM, the TGI (SK-OV-3 ovarian) was 68.7 µM and the GI50 (SN12C renal) was 3.52 µM. For the same compound, the TGI (SN12C renal) was 29.9 µM, the GI50 (SNB-19 CNS) was 3.96 µM and the TGI (SNB-19 CNS) was 39.1 µM. For the same compound, the GI50 (SNB-75 CNS) was 1.89 µM, the TGI (SNB-75 CNS) was 10.9 µM and the GI50 (SR leukemia) was 3.36 µM. The TGI (SR leukemia) was greater than 100 µM, the GI50 (SW-620 colon) was 2.96 µM and the TGI (SW-620 colon) was 35.5 µM. It also gave a GI50 (T-47D breast) of 9.5 µM, a TGI (T-47D breast) of 98.8 µM and a GI50 (TK-10 renal) of 2.89 µM. The TGI (TK-10 renal) was 14 µM, the GI50 (U251 CNS) was 4.77 µM and the TGI (U251 CNS) was 29.4 µM. The GI50 (UACC-257 melanoma) was 3.9 µM, the TGI (UACC-257 melanoma) was 14.4 µM and the GI50 (UACC-62 melanoma) was 3.9 µM. The TGI (UACC-62 melanoma) was 16.4 µM, the GI50 (UO-31 renal) was 2.68 µM and the TGI (UO-31 renal) was 14 µM.

Reference: PubChem BioAssay (NCI)
